Assay results reported in patent US9096596B2 (Janssen Pharmaceutica NV, priority 2013, dated 2015).

Assays:
P2X7 [1] = target: T1, P2X7 (Homo sapiens (Human), UniProt Q99572); assay: Radioligand binding, human P2X7-1321N1 cell membranes, tracer tritiated A-804598; conditions: human P2X7-1321N1 membranes; 1 hour at 4° C.; IC50 corrected for tracer concentration and affinity
Experimental: (§1) On the day of the experiment, cell membrane preparations were made according to standard published methods. […] The compound can be prepared as described in the literature. […] The assay was terminated by filtration (GF/B filters pre-soaked with 0.3% PEI) and washed with washing buffer (Tris-HCl 50 mM). The IC50 generated in the binding assay was corrected for tracer concentration and affinity of the tracer to derive at the affinity (Ki) of the test compounds.

P2X7 [2] = target: T1, P2X7; assay: Ca2+ flux (FLIPR) in 1321N1 cells expressing recombinant human P2X7 channel; type: cell-based; conditions: 250 μM BzATP, Calcium-4 dye
Experimental: 1321N1 cells expressing the recombinant human, rat or mouse P2X7 channel was cultured in HyQ DME/(HyClone/Dulbecco's Modified Eagle Medium) high glucose supplemented with 10% Fetal Bovine Serum (FBS) and appropriate selection marker. Cells were seeded at a density of 25000 cells/well (96-well clear bottom black walled plates) in 100 μl volume/well. On the day of the experiment, cell plates were washed with assay buffer, containing (in mM): 130 NaCl, 2 KCl, 1 CaCl2, 1 MgCl2, 10 HEPES, 5 glucose; pH 7.40 and 300 mOs. After the wash, cells were loaded with the Calcium-4 dye (Molecular Device) and incubated in the dark for 60 minutes. Test compounds were prepared at 250× the test concentration in neat DMSO. Intermediate 96-well compound plates were prepared by transferring 1.2 μL of the compound into 300 μL of assay buffer. A further 3× dilution occurred when transferring 50 μL/well of the compound plate to 100 μL/well in the cell plate. Cells were incubated with test compounds and dye for 30 minutes. […] The fluorescence change was measured 180 seconds after adding the agonist.

P2X7 [3] = target: T1, P2X7; assay: P2X7 antagonism in human PBMCs (IL-1β release, ELISA); type: cell-based; conditions: test compound 10 μM, IL-1β release in human PBMCs, LPS 30 ng/ml + Bz-ATP 0.5 mM, read-out: PBMC 10 μM (% control)
Experimental: Human blood was collected using a blood donor program. […] Cells were incubated for an additional 1.5 hours. […] In Table 2, when the data cell has been left blank, it is intended to mean that the compound was not tested in that assay.

rat P2X7 [4] = target: T2, rat P2X7 (Rattus norvegicus (Rat), UniProt Q64663); assay: Ca2+ flux (FLIPR) in 1321N1 cells expressing recombinant rat P2X7 channel; type: cell-based; conditions: 250 μM BzATP, Calcium-4 dye
Procedure, shortened: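 1321N1 cells stably expressing P2X7 were loaded with Calcium-4 dye for 60 min in HEPES-buffered saline (pH 7.40, 1 mM CaCl2, 1 mM MgCl2), then preincubated with test compounds for 30 min. Fluorescence change was read 180 s after agonist addition.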

rat P2X7 [5] = target: T2, rat P2X7; assay: Radioligand binding, rat P2X7-1321N1 cell membranes, tracer tritiated A-804598; conditions: rat P2X7-1321N1 membranes; 1 hour at 4° C.; IC50 corrected for tracer concentration and affinity
Experimental: as §1

T2 sequence (Q64663 whole entry): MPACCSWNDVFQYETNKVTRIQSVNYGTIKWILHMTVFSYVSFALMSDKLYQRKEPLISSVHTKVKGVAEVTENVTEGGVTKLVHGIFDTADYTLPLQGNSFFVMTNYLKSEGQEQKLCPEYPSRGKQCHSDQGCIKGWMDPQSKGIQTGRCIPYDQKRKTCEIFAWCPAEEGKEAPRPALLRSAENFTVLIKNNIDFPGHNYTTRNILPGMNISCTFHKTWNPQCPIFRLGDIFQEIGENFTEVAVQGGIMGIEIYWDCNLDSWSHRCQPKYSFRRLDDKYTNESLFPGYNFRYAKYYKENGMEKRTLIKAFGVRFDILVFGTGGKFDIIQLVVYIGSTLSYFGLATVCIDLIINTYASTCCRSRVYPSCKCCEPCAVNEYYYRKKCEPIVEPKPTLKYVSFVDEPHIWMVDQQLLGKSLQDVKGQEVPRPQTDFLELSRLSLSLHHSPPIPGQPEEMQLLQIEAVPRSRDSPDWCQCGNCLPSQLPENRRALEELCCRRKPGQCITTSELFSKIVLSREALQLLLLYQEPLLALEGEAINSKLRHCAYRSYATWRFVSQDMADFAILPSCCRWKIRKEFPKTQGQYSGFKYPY
T1 sequence (Q99572 whole entry): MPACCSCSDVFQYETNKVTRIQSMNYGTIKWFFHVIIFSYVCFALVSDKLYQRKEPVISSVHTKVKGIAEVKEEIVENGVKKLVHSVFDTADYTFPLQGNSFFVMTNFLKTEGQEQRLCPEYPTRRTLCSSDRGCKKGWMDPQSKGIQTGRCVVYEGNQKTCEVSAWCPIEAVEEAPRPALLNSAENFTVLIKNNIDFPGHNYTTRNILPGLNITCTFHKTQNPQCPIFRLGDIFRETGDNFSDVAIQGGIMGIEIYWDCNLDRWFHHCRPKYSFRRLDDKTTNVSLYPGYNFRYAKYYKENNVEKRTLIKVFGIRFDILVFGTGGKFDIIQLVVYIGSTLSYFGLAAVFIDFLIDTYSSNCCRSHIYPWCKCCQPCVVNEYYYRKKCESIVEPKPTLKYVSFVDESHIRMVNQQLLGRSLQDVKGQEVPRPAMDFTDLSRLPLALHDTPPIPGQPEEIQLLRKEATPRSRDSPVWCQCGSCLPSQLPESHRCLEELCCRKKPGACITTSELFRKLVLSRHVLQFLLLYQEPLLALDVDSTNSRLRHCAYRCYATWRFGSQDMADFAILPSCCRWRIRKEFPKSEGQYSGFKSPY

With `CC1Cc2c(ncnc2-c2ccn[nH]2)CN1C(=O)c1cccc(C(F)(F)F)c1Cl` (stereo not shown) [Example 62, (2-chloro-3-(trifluoromethyl)phenyl)(6-methyl-4-(1H-pyrazol-5-yl)-5,6-dihydropyrido[3,4-d]pyrimidin-7(8H)-yl)methanone] the Ki (P2X7 [1]) was 0.0251 µM, the IC50 (P2X7 [2]) was 0.0078 µM and the remaining activity at 10 µM (P2X7 [3]) was 44.7%. The IC50 (rat P2X7 [4]) was 0.0056 µM.
With `CC1Cc2c(nc(N)nc2-c2ccn[nH]2)CN1C(=O)c1cccc(C(F)(F)F)c1Cl` (stereo not shown) [Example 63, (2-amino-6-methyl-4-(1H-pyrazol-5-yl)-5,6-dihydropyrido[3,4-d]pyrimidin-7(8H)-yl)(2-chloro-3-(trifluoromethyl)phenyl)methanone] the Ki (P2X7 [1]) was 0.0224 µM, the IC50 (P2X7 [2]) was 0.316 µM and the remaining activity at 10 µM (P2X7 [3]) was -4.1%. For the same compound, the IC50 (rat P2X7 [4]) was 0.0025 µM.
`Cc1nc2c(c(-c3ccn[nH]3)n1)CC(C)N(C(=O)c1cccc(C(F)(F)F)c1C)C2` (stereo not shown) [Example 77, (2,6-dimethyl-4-(1H-pyrazol-5-yl)-5,6-dihydropyrido[3,4-d]pyrimidin-7(8H)-yl)(2-methyl-3-(trifluoromethyl)phenyl)methanone] gave a Ki (P2X7 [1]) of 0.0316 µM, an IC50 (P2X7 [2]) of 0.0631 µM and a remaining activity at 10 µM (P2X7 [3]) of 20.9%.
`Cc1nc2c(c(-c3ccn[nH]3)n1)CC(C)N(C(=O)c1ccc(Cl)cc1F)C2` (stereo not shown) [Example 87, (4-chloro-2-fluorophenyl)(2,6-dimethyl-4-(1H-pyrazol-5-yl)-5,6-dihydropyrido[3,4-d]pyrimidin-7(8H)-yl)methanone] showed a Ki (P2X7 [1]) of 0.0316 µM, an IC50 (P2X7 [2]) of 0.0336 µM and a remaining activity at 10 µM (P2X7 [3]) of 0.4%.
`Cc1nc2c(c(-c3ccn[nH]3)n1)CC(C)N(C(=O)c1ccc(F)cc1F)C2` (stereo not shown) [Example 93, (2,4-difluorophenyl)(2,6-dimethyl-4-(1H-pyrazol-5-yl)-5,6-dihydropyrido[3,4-d]pyrimidin-7(8H)-yl)methanone] gave a Ki (P2X7 [1]) of 0.2 µM, an IC50 (P2X7 [2]) of 0.0285 µM and a remaining activity at 10 µM (P2X7 [3]) of -1.7%. It also gave an IC50 (rat P2X7 [4]) of 0.385 µM.
In the case of `Cc1nc2c(c(-c3ccn[nH]3)n1)CC(C)N(C(=O)c1ccc(Cl)cc1)C2` (stereo not shown) [Example 96, (4-chlorophenyl)(2,6-dimethyl-4-(1H-pyrazol-5-yl)-5,6-dihydropyrido[3,4-d]pyrimidin-7(8H)-yl)methanone], the Ki (P2X7 [1]) is reported as 0.631 µM, the IC50 (P2X7 [2]) is reported as 0.05 µM and the remaining activity at 10 µM (P2X7 [3]) is reported as 3.8%. The IC50 (rat P2X7 [4]) was 1.84 µM.
`Cc1nc2c(c(-c3ccn[nH]3)n1)CC(C)N(C(=O)c1ccccc1Cl)C2` (stereo not shown) [Example 97, (2-chlorophenyl)(2,6-dimethyl-4-(1H-pyrazol-5-yl)-5,6-dihydropyrido[3,4-d]pyrimidin-7(8H)-yl)methanone] showed a Ki (P2X7 [1]) of 0.2 µM, an IC50 (P2X7 [2]) of 0.166 µM and a remaining activity at 10 µM (P2X7 [3]) of -3.1%. For the same compound, the IC50 (rat P2X7 [4]) was 14 µM.
With `O=C(c1cccc(C(F)(F)F)c1Cl)N1CCc2c(ncnc2-n2nccn2)C1` [Example 108, 7-{[2-Chloro-3-(trifluoromethyl)phenyl]carbonyl}-4-(2H-1,2,3-triazol-2-yl)-5,6,7,8-tetrahydropyrido[3,4-d]pyrimidine] the Ki (rat P2X7 [5]) was 0.0079 µM and the IC50 (rat P2X7 [4]) was 0.0679 µM.
Compound `O=C(c1cccc(C(F)(F)F)c1Cl)N1CCc2c(ncnc2-n2cnnc2)C1` [Example 109, (4-(4H-1,2,4-triazol-4-yl)-5,6-dihydropyrido[3,4-d]pyrimidin-7(8H)-yl)(2-chloro-3-(trifluoromethyl)phenyl)methanone] has a Ki (P2X7 [1]) of 0.0126 µM, an IC50 (P2X7 [2]) of 0.0121 µM and a remaining activity at 10 µM (P2X7 [3]) of 2.2%. For the same compound, the IC50 (rat P2X7 [4]) was 0.485 µM.
`O=C(c1cccc(C(F)(F)F)c1F)N1CCc2c(ncnc2-c2ccn[nH]2)C1` [Example 111, (4-(1H-pyrazol-5-yl)-5,6-dihydropyrido[3,4-d]pyrimidin-7(8H)-yl)(2-fluoro-3-(trifluoromethyl)phenyl)methanone] showed a Ki (P2X7 [1]) of 0.0501 µM, an IC50 (P2X7 [2]) of 0.353 µM and a remaining activity at 10 µM (P2X7 [3]) of 0.6%. The IC50 (rat P2X7 [4]) was 0.807 µM.
Work on `O=C(c1cccc(C(F)(F)F)c1Cl)N1CCc2c(ncnc2-c2cccc(F)n2)C1` [Example 130, (2-chloro-3-(trifluoromethyl)phenyl)(4-(6-fluoropyridin-2-yl)-5,6-dihydropyrido[3,4-d]pyrimidin-7(8H)-yl)methanone] yielded a Ki (P2X7 [1]) of 0.0631 µM, an IC50 (P2X7 [2]) of 0.0174 µM and a remaining activity at 10 µM (P2X7 [3]) of 12.9%. It also gave an IC50 (rat P2X7 [4]) of 1.09 µM.
